Molecular target: T1, X-RdRp protein (HEV ORF1 X to RdRp domains, forming the 'pocket-like' cavity, PC) (Hepatitis E virus US2, UniProt Q9YLR1)
T1 construct: X-RdRp fragment of ORF1 polyprotein (X 850-998, Hel 1002-1279, RdRp 1298-1765)
T1 sequence (Q9YLR1 793-1708): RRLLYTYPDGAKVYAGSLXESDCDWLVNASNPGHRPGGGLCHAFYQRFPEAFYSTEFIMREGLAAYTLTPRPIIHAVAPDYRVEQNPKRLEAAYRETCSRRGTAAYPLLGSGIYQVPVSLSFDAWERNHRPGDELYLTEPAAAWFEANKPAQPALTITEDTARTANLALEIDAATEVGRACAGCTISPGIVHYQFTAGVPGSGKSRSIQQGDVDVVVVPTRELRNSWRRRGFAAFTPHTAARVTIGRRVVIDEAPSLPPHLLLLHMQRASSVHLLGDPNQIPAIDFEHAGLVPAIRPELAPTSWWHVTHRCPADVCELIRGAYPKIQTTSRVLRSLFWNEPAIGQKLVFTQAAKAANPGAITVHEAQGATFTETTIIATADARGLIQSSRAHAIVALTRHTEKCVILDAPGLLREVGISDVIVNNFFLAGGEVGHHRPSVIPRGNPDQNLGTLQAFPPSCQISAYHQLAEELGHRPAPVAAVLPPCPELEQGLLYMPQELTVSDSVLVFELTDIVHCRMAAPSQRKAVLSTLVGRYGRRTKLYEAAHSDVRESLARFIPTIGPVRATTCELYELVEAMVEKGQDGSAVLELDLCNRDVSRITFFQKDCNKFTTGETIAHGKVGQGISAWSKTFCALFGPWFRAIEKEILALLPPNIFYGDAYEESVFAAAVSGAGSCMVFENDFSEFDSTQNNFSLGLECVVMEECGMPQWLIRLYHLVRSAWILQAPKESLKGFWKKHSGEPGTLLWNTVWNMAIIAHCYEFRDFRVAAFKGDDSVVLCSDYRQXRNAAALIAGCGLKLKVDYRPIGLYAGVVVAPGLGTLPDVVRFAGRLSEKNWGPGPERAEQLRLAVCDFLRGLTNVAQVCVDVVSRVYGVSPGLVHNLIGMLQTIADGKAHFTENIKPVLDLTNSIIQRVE
Assay: SPR, Biacore 8K, CM5 chip, protein immobilised by amine coupling, […] Langmuir fit
Format: binding
Conditions: protein refolded from inclusion bodies; site (X/RdRp pocket-like cavity) assigned by docking

## C[C@H]1CC[C@@]2(OC1)O[C@H]1C[C@H]3[C@@H]4CC=C5C[C@@H](O[C@@H]6O[C@@H](C)[C@H](O)[C@@H](O)[C@H]6O)C[C@@H](O[C@@H]6O[C@H](C)[C@H](O)[C@H](O)[C@H]6O)[C@]5(C)[C@H]4CC[C@]3(C)[C@H]1[C@@H]2C [liriopesides B]
  Kd: 132 µM
